In US20220401439A1, “INTRANASAL PHARMACEUTICAL COMPOSITIONS OF CGRP INHIBITORS” (Biohaven Pharmaceutical Holding Company Ltd., priority 2019, published 2022):

Legend:
[1] = tested on: patients receiving acute treatment of migraine; assay: Phase 2/3 trial BHV3500-201 (Study 201), efficacy in acute treatment of migraine; type: in vivo, human; details: for Pain relapse from 2 to 48 hours postdose, n/N (%): mITT subjects with pain freedom at 2 hours postdose; for Nausea freedom at 2 hours postdose, n/N (%) / Phonophobia freedom at 2 hours postdose, n/N (%) / Photophobia freedom at 2 hours postdose, n/N (%): mITT subjects with symptom present at on-study migraine attack onset; for Pain relief at 2 hours postdose, n/N (%) / Pain relief at 30 minutes postdose, n/N (%) / Pain relief at 60 minutes postdose, n/N (%) / Rescue medication use within 24 hours postdose, n/N (%) / Sustained pain freedom from 2 to 24 hours postdose, n/N (%) / Sustained pain freedom from 2 to 48 hours postdose, n/N (%) / Sustained pain relief from 2 to 24 hours postdose, n/N (%) / Sustained pain relief from 2 to 48 hours postdose, n/N (%): mITT subjects; for Pain relief at 30 minutes postdose, Stratified Percentage Difference (Zavegepant-Placebo) / Pain relief at 60 minutes postdose, Stratified Percentage Difference (Zavegepant-Placebo) / Rescue medication use within 24 hours postdose, Stratified Percentage Difference (Zavegepant-Placebo) / Sustained pain freedom from 2 to 24 hours postdose, Stratified Percentage Difference (Zavegepant-Placebo) / Sustained pain freedom from 2 to 48 hours postdose, Stratified Percentage Difference (Zavegepant-Placebo) / Sustained pain relief from 2 to 24 hours postdose, Stratified Percentage Difference (Zavegepant-Placebo) / Sustained pain relief from 2 to 48 hours postdose, Stratified Percentage Difference (Zavegepant-Placebo) / Pain relief at 2 hours postdose, Stratified Percentage Difference (Zavegepant-Placebo): mITT; for Pain relief at 30 minutes postdose, Stratified Percentage Difference (Zavegepant-Placebo) / Pain relief at 60 minutes postdose, Stratified Percentage Difference (Zavegepant-Placebo) / Rescue medication use within 24 hours postdose, Stratified Percentage Difference (Zavegepant-Placebo) / Sustained pain freedom from 2 to 24 hours postdose, Stratified Percentage Difference (Zavegepant-Placebo) / Sustained pain freedom from 2 to 48 hours postdose, Stratified Percentage Difference (Zavegepant-Placebo) / Sustained pain relief from 2 to 24 hours postdose, Stratified Percentage Difference (Zavegepant-Placebo) / Sustained pain relief from 2 to 48 hours postdose, Stratified Percentage Difference (Zavegepant-Placebo) / Pain relief at 2 hours postdose, Stratified Percentage Difference (Zavegepant-Placebo) / Return to normal function at 30 minutes postdose, Stratified Percentage Difference (Zavegepant-Placebo) / Return to normal function at 60 minutes postdose, Stratified Percentage Difference (Zavegepant-Placebo) / Return to normal function at 2 hours postdose, Stratified Percentage Difference (Zavegepant-Placebo) / Pain relapse from 2 to 48 hours postdose, Stratified Percentage Difference (Zavegepant-Placebo) / Nausea freedom at 2 hours postdose, Stratified Percentage Difference (Zavegepant-Placebo) / Phonophobia freedom at 2 hours postdose, Stratified Percentage Difference (Zavegepant-Placebo) / Photophobia freedom at 2 hours postdose, Stratified Percentage Difference (Zavegepant-Placebo): CMH weighting; for Pain relief at 2 hours postdose, Stratified Percentage Difference (Zavegepant-Placebo): stratified by prophylactic migraine medication use; for Return to normal function at 30 minutes postdose, Stratified Percentage Difference (Zavegepant-Placebo) / Return to normal function at 60 minutes postdose, Stratified Percentage Difference (Zavegepant-Placebo) / Return to normal function at 2 hours postdose, Stratified Percentage Difference (Zavegepant-Placebo): subjects with functional disability at onset; for Pain relapse from 2 to 48 hours postdose, Stratified Percentage Difference (Zavegepant-Placebo): subjects with pain freedom at 2 hours postdose; for Nausea freedom at 2 hours postdose, Stratified Percentage Difference (Zavegepant-Placebo) / Phonophobia freedom at 2 hours postdose, Stratified Percentage Difference (Zavegepant-Placebo) / Photophobia freedom at 2 hours postdose, Stratified Percentage Difference (Zavegepant-Placebo): subjects with symptom present at onset; for Return to normal function at 30 minutes postdose, n/N (%) / Return to normal function at 60 minutes postdose, n/N (%) / Return to normal function at 2 hours postdose, n/N (%): mITT subjects with functional disability at on-study migraine attack onset
[2] = pH-solubility profile of drug substance; type: physicochemical; details: pH = 8.2; mono-hydrochloride salt form

For `Cc1cc(C[C@@H](NC(=O)N2CCC(c3cc4ccccc4[nH]c3=O)CC2)C(=O)N2CCN(C3CCN(C)CC3)CC2)cc2cn[nH]c12` [Zavegepant, (R)—N-(3-(7-methyl-1H-indazol-5-yl)-1-(4-(1-methylpiperidin-4-yl)piperazin-1-yl)-1-oxopropan-2-yl)-4-(2-oxo-1,2-dihydroquinolin-3-yl)piperidine-1-carboxamide], the “Pain relapse from 2 to 48 hours postdose, n/N (%)” value (“Pain relapse … (%)” below) ([1]; zavegepant 5 mg) was “(31.6) %”, the “Nausea freedom at 2 hours postdose, n/N (%)” value (“Nausea freedom … (%)” below) ([1]; zavegepant 5 mg) was “(53.2) %” and the “Phonophobia freedom at 2 hours postdose, n/N (%)” value (from here on “Phonophobia freedom … (%)”) ([1]; zavegepant 5 mg) was “(44.2) %”. The “Photophobia freedom at 2 hours postdose, n/N (%)” value (“Photophobia freedom … (%)” below) ([1]; zavegepant 5 mg) was “(35.0) %”, the “Pain relief at 2 hours postdose, n/N (%)” value ([1]; zavegepant 10 mg intranasal single dose) was “(60.6) %” and the “Pain relief at 30 minutes postdose, Stratified Percentage Difference (Zavegepant-Placebo)” value ([1]; zavegepant 10 mg vs placebo) was 5.3%. For the same compound, the “Pain relief at 60 minutes postdose, Stratified Percentage Difference (Zavegepant-Placebo)” value ([1]; zavegepant 10 mg vs placebo) was 4.2%, the “Rescue medication use within 24 hours postdose, Stratified Percentage Difference (Zavegepant-Placebo)” value ([1]; zavegepant 10 mg vs placebo) was −1.1% and the “Sustained pain freedom from 2 to 24 hours postdose, Stratified Percentage Difference (Zavegepant-Placebo)” value ([1]; zavegepant 10 mg vs placebo) was 6.1%. The “Sustained pain freedom from 2 to 48 hours postdose, Stratified Percentage Difference (Zavegepant-Placebo)” value ([1]; zavegepant 10 mg vs placebo) was 6.3%, the “Sustained pain relief from 2 to 24 hours postdose, Stratified Percentage Difference (Zavegepant-Placebo)” value ([1]; zavegepant 10 mg vs placebo) was 6.8% and the “Sustained pain relief from 2 to 48 hours postdose, Stratified Percentage Difference (Zavegepant-Placebo)” value ([1]; zavegepant 10 mg vs placebo) was 7.0%. The “Pain relief at 2 hours postdose, Stratified Percentage Difference (Zavegepant-Placebo)” value ([1]; zavegepant 10 mg vs placebo) was 7.1%, the “Return to normal function at 30 minutes postdose, Stratified Percentage Difference (Zavegepant-Placebo)” value ([1]; zavegepant 10 mg vs placebo) was 2.1% and the “Return to normal function at 60 minutes postdose, Stratified Percentage Difference (Zavegepant-Placebo)” value ([1]; zavegepant 10 mg vs placebo) was 1.8%. For the same compound, the “Return to normal function at 2 hours postdose, Stratified Percentage Difference (Zavegepant-Placebo)” value ([1]; zavegepant 10 mg vs placebo) was 7.1%, the “Pain relapse from 2 to 48 hours postdose, Stratified Percentage Difference (Zavegepant-Placebo)” value ([1]; zavegepant 10 mg vs placebo) was −17.0% and the “Nausea freedom at 2 hours postdose, Stratified Percentage Difference (Zavegepant-Placebo)” value ([1]; zavegepant 10 mg vs placebo) was 2.9%. The “Phonophobia freedom at 2 hours postdose, Stratified Percentage Difference (Zavegepant-Placebo)” value ([1]; zavegepant 10 mg vs placebo) was 10.8%, the “Photophobia freedom at 2 hours postdose, Stratified Percentage Difference (Zavegepant-Placebo)” value ([1]; zavegepant 10 mg vs placebo) was 5.1% and the “Pain relief at 30 minutes postdose, n/N (%)” value ([1]; zavegepant 10 mg) was “(29.9) %”. For the same compound, the “Pain relief at 60 minutes postdose, n/N (%)” value ([1]; zavegepant 10 mg) was “(46.0) %”, the “Rescue medication use within 24 hours postdose, n/N (%)” value ([1]; zavegepant 10 mg) was “(26.0) %” and the “Sustained pain freedom from 2 to 24 hours postdose, n/N (%)” value ([1]; zavegepant 10 mg) was “(15.1) %”. The “Sustained pain freedom from 2 to 48 hours postdose, n/N (%)” value ([1]; zavegepant 10 mg) was “(13.8) %”, the “Sustained pain relief from 2 to 24 hours postdose, n/N (%)” value ([1]; zavegepant 10 mg) was “(42.5) %” and the “Sustained pain relief from 2 to 48 hours postdose, n/N (%)” value ([1]; zavegepant 10 mg) was “(39.6) %”. The “Return to normal function at 30 minutes postdose, n/N (%)” value ([1]; zavegepant 10 mg) was “(7.6) %”, the “Return to normal function at 60 minutes postdose, n/N (%)” value ([1]; zavegepant 10 mg) was “(18.9) %” and the “Return to normal function at 2 hours postdose, n/N (%)” value ([1]; zavegepant 10 mg) was “(34.5) %”. For the same compound, the “Pain relapse … (%)” value ([1]; zavegepant 10 mg) was “(33.0) %”, the “Nausea freedom … (%)” value ([1]; zavegepant 10 mg) was “(53.9) %” and the “Phonophobia freedom … (%)” value ([1]; zavegepant 10 mg) was “(44.8) %”. The “Photophobia freedom … (%)” value ([1]; zavegepant 10 mg) was “(35.6) %”, the “Pain relief at 2 hours postdose, n/N (%)” value ([1]; zavegepant 20 mg intranasal single dose) was “(61.2) %” and the “Pain relief at 30 minutes postdose, Stratified Percentage Difference (Zavegepant-Placebo)” value ([1]; zavegepant 20 mg vs placebo) was 1.9%. For the same compound, the “Pain relief at 60 minutes postdose, Stratified Percentage Difference (Zavegepant-Placebo)” value ([1]; zavegepant 20 mg vs placebo) was 7.8%, the “Rescue medication use within 24 hours postdose, Stratified Percentage Difference (Zavegepant-Placebo)” value ([1]; zavegepant 20 mg vs placebo) was −7.1% and the “Sustained pain freedom from 2 to 24 hours postdose, Stratified Percentage Difference (Zavegepant-Placebo)” value ([1]; zavegepant 20 mg vs placebo) was 6.7%. For the same compound, the “Sustained pain freedom from 2 to 48 hours postdose, Stratified Percentage Difference (Zavegepant-Placebo)” value ([1]; zavegepant 20 mg vs placebo) was 5.7%, the “Sustained pain relief from 2 to 24 hours postdose, Stratified Percentage Difference (Zavegepant-Placebo)” value ([1]; zavegepant 20 mg vs placebo) was 8.9% and the “Sustained pain relief from 2 to 48 hours postdose, Stratified Percentage Difference (Zavegepant-Placebo)” value ([1]; zavegepant 20 mg vs placebo) was 6.2%. The “Pain relief at 2 hours postdose, Stratified Percentage Difference (Zavegepant-Placebo)” value ([1]; zavegepant 20 mg vs placebo) was 7.5%, the “Return to normal function at 30 minutes postdose, Stratified Percentage Difference (Zavegepant-Placebo)” value ([1]; zavegepant 20 mg vs placebo) was 4.5% and the “Return to normal function at 60 minutes postdose, Stratified Percentage Difference (Zavegepant-Placebo)” value ([1]; zavegepant 20 mg vs placebo) was 1.7%. For the same compound, the “Return to normal function at 2 hours postdose, Stratified Percentage Difference (Zavegepant-Placebo)” value ([1]; zavegepant 20 mg vs placebo) was 7.3%, the “Pain relapse from 2 to 48 hours postdose, Stratified Percentage Difference (Zavegepant-Placebo)” value ([1]; zavegepant 20 mg vs placebo) was −12.5% and the “Nausea freedom at 2 hours postdose, Stratified Percentage Difference (Zavegepant-Placebo)” value ([1]; zavegepant 20 mg vs placebo) was 3.7%. For the same compound, the “Phonophobia freedom at 2 hours postdose, Stratified Percentage Difference (Zavegepant-Placebo)” value ([1]; zavegepant 20 mg vs placebo) was 9.3%, the “Photophobia freedom at 2 hours postdose, Stratified Percentage Difference (Zavegepant-Placebo)” value ([1]; zavegepant 20 mg vs placebo) was 7.4% and the “Pain relief at 30 minutes postdose, n/N (%)” value ([1]; zavegepant 20 mg) was “(26.6) %”. For the same compound, the “Pain relief at 60 minutes postdose, n/N (%)” value ([1]; zavegepant 20 mg) was “(49.8) %”, the “Rescue medication use within 24 hours postdose, n/N (%)” value ([1]; zavegepant 20 mg) was “(20.2) %” and the “Sustained pain freedom from 2 to 24 hours postdose, n/N (%)” value ([1]; zavegepant 20 mg) was “(15.7) %”. For the same compound, the “Sustained pain freedom from 2 to 48 hours postdose, n/N (%)” value ([1]; zavegepant 20 mg) was “(13.2) %”, the “Sustained pain relief from 2 to 24 hours postdose, n/N (%)” value ([1]; zavegepant 20 mg) was “(44.5) %” and the “Sustained pain relief from 2 to 48 hours postdose, n/N (%)” value ([1]; zavegepant 20 mg) was “(38.8) %”. The “Return to normal function at 30 minutes postdose, n/N (%)” value ([1]; zavegepant 20 mg) was “(9.9) %”, the “Return to normal function at 60 minutes postdose, n/N (%)” value ([1]; zavegepant 20 mg) was “(18.8) %” and the “Return to normal function at 2 hours postdose, n/N (%)” value ([1]; zavegepant 20 mg) was “(34.7) %”. For the same compound, the “Pain relapse … (%)” value ([1]; zavegepant 20 mg) was “(37.6) %”, the “Nausea freedom … (%)” value ([1]; zavegepant 20 mg) was “(54.7) %” and the “Phonophobia freedom … (%)” value ([1]; zavegepant 20 mg) was “(43.3) %”. For the same compound, the “Photophobia freedom … (%)” value ([1]; zavegepant 20 mg) was “(37.9) %” and the pH-solubility profile [2] was 105 mg/mL at pH = 8.2.
